Earlier results as cited in PMC11791199 (Scientific Reports, 2025).
Starred links: 1 amine or outer side, 2 acyl side, 3 side chain; linkers in the order of their positions; H or OH if unused. Positions of bridges follow the written chain, without caps; N, C: chain ends. Non-standard residues stand in square brackets, D forms with d. Residues, ends and D or L forms follow the SMILES beside them. *: point of attachment. Phe(3R-OH) = O=C([C@@H](N[*:1])[C@H](O[*:3])c1ccccc1)[*:2]; NMeTrp(4-OMe) = CN[C@@H](Cc1c[nH]c2cccc(OC)c12)C(=O)O; NMeaIle = CC[C@@H](C)[C@H](NC)C(=O)O; NMe2Val = CC(C)[C@@H](C(=O)*)N(C)C; NMeT = CN[C@H](C(=O)O)[C@@H](C)O; NMeL = CN[C@@H](CC(C)C)C(=O)O; NMeV = CN[C@H](C(=O)O)C(C)C

Legend:
Settings in all cases: cited from earlier work
ClpC1 = ClpC1 (Mycobacterium tuberculosis, UniProt P9WPC9)
Chain of ClpC1 (P9WPC9 whole entry): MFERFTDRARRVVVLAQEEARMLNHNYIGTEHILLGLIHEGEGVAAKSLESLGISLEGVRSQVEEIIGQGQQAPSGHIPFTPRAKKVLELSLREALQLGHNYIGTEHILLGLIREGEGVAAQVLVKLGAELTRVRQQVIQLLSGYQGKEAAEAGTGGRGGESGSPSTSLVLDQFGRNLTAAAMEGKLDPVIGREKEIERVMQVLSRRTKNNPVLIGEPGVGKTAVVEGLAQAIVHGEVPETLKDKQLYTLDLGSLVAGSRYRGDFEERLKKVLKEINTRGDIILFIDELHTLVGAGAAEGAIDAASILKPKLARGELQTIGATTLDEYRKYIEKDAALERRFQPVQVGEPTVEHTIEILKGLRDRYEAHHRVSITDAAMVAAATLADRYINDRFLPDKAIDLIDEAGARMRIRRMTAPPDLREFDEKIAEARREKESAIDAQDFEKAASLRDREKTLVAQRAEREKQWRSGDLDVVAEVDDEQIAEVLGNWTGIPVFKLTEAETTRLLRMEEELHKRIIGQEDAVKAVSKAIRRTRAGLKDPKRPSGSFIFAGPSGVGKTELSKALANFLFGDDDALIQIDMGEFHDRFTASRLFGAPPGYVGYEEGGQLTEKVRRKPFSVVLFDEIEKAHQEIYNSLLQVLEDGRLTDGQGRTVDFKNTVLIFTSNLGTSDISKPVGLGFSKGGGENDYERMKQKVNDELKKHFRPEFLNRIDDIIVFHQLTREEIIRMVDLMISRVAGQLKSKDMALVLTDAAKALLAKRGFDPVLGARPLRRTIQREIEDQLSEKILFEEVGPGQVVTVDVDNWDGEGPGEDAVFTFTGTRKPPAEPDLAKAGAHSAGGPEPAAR

ClpC1P1P2 = ClpC1P1P2 (Mycobacterium tuberculosis, UniProt P9WPC9)
Chain of ClpC1P1P2 (P9WPC9 whole entry): as above

tuberculosis = tested on: tuberculosis
ClpC1 NTD = ClpC1 NTD (Mycobacterium tuberculosis, UniProt P9WPC9)
Chain of ClpC1 NTD (P9WPC9 2-144): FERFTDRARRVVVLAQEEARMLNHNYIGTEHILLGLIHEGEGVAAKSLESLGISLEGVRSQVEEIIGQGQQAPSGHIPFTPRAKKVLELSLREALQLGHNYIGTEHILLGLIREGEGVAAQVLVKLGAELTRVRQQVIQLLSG

Compound	effect on ATPase activity (ClpC1)	effect on FITC-casein degradation (ClpC1P1P2)	MIC value, times lower than that of rifampicin or isoniazid (tuberculosis) [times]	affinity for ClpC1-NTD (ClpC1 NTD)
CC[C@@H](C)[C@@H](C(=O)N[C@@H]1C(=O)N(C)[C@@H]([C@@H](C)O)C(=O)N[C@@H](C(C)C)C(=O)N(C)[C@@H](CC(C)C)C(=O)N[C@@H](C(C)C)C(=O)N(C)[C@@H](C(C)C)C(=O)N(C)[C@@H](Cc2c[nH]c3cccc(OC)c23)C(=O)N[C@@H](C(C)C)C(=O)N[C@@H]([C@H](O)c2ccccc2)C(=O)N[C@@H](C(C)C)C(=O)O[C@@H]1C)N(C)C(=O)[C@@H](NC(=O)[C@H](C(C)C)N(C)C)C(C)C [ecumicin] (NMe2Val-V[NMeaIle]T[NMeT]V[NMeL]V[NMeV][NMeTrp(4-OMe)]V[Phe(3R-OH)]V; ester 3-C)	strong activator	inhibitor	50	
cyclomarin	very modest effects	very modest effects		nM affinity
